{"source": "patent US11427594B2", "about": "“Non brain penetrant A2A inhibitors and methods for use in the treatment of cancers” (iTeos Belgium SA, priority 2018, dated 2022)", "key": {"[1]": {"molecular_target": "T1, A2A receptor (Homo sapiens, UniProt P29274)", "T1 construct": "host or cells: HEK-293", "T1 sequence (P29274 whole entry)": "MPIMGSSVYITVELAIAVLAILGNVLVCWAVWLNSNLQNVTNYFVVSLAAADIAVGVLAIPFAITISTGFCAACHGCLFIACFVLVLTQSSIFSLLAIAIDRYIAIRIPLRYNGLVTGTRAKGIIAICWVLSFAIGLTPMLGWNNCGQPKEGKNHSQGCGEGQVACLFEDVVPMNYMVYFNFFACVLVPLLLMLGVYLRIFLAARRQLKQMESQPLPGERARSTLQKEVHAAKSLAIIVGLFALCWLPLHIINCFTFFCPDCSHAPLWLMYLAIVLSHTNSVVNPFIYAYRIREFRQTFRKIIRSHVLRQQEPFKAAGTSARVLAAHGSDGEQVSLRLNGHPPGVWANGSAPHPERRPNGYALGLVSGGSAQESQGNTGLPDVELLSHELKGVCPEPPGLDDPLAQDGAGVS", "assay": "Inhibition of cAMP production in HEK cells (LANCE Ultra cAMP, TR-FRET)", "type": "cell-based", "conditions": "HEK-293 cells with stable transfection of A2A receptor", "protocol": "When the A2A receptor is activated, is induces the production of cAMP. The present assay thus aims at showing that cAMP production is inhibited in HEK cells in response to their exposure to the compounds of the invention. HEK-293 cells with a stable transfection of A2A receptor were bought from PerkinElmer® (#ES-011-C). Cells were cultured in EMEM medium (Lonza, #BE12-611F) supplemented with 10% FBS (Lonza, #DE14-801F) and 200 μg/mL of G418 (Tocris, #4131) at 37° C. and 5% CO2. Fresh media without the selection marker was added on the day immediately before the experiment to stop selection pressure. cAMP inhibition and antagonist IC50 determination were accessed using the LANCE® Ultra cAMP Kit from PerkinElmer® (#TRF0262) on white half area 96 well plates (PerkinElmer®, #6005560). The assays were conducted in two different stimulation buffers: • a) normal with 1×HBSS (Gibco®, #141750-95), 5 mM HEPES (Lonza, #BE17-737E), 0.1% BSA and 25 μM Rolipram and • b) HSA with 1×HBSS (Gibco®, #141750-95), 5 mM HEPES (Lonza, #BE17-737E), 2% Human Serum Albumin (Sigma-Aldrich®—A1653), 30 μM of EHNA (Tocris—#1261) and 100 μM Rolipram. Stimulation buffer b) mimics the human situation by increasing the amount of albumin present in the assay. Compounds of the present invention were diluted 100× in either of the buffers depending on the assay performed. A total of 1000 cells per well were pre-incubated for 10 minutes with the compounds of the present invention before adding the corresponded EC80 of A2A agonist (3 nM of NECA in normal buffer) or 5 μM of Adenosine (in HAS buffer) for a total reaction time of 30 minutes. The total volume of the reaction was 20 μl (10 μl of cells, 5 μl of antagonist and 5 μl of agonist). The reaction was finalized by adding 10 μl of 4×EU-cAMP tracer working solution and 10 μl of 4× ULight-anti-cAMP working solution. The TR-FRET signal was measured after 1 hour using a Spectramax Paradigm (Molecular Devices)."}, "[2]": {"assay": "Permeability and efflux in Caco-2 cells", "type": "in vitro ADME", "conditions": "human, Caco-2 monolayer, bidirectional transport, pH 7.4", "protocol": "The transport buffer (TB, pH 7.4) used in the study is Hank's Buffered Saline Solution (HBSS, Gibco, Cat #14025-076) with 10 mM HEPES at pH 7.4. Fetal bovine serum (FBS) (Corning, Cat #Corning-35-076-CV, or other vendors), Minimum Essential Media (MEM) (Gibco, Cat #41500-034) as well as its supplements are purchased from Invitrogen (Carlsbad, Calif., USA). Caco-2 cell line (Cat #HTB-37) is purchased from the ATCC (Rockville, Md., USA). The organic solvents used in the study are purchased from Sigma Aldrich (St. Louis, Mo., USA). For reference compounds (fenoterol, propranolol and digoxin) and test compounds, 0.4 mM intermediate solutions are prepared by diluting 10 mM or other appropriate concentrations of DMSO stock solutions with DMSO. 2 μM dosing solutions for reference compounds and test compounds are prepared by spiking the appropriate volume of intermediate solution to TB with and without 1 μM Zosuquidar. The final concentration of DMSO is no more than 1% (v/v). Caco-2 cells are grown in MEM supplemented with 2 mM L-glutamine, 10% FBS, 100 U/mL penicillin-G and 100 μg/mL streptomycin. The cells are incubated at 37° C., 5% CO2 and relatively saturated humidity. After reaching 80-90% confluency, the cells are gently detached with 0.05% trypsin-EDTA solution. Cells at passage 30-50 are seeded on the 96-well BD insert system (Cat #359274) at the density of 1×10^5 cells/cm2 and cultured for 21-28 days with medium changed every 4-5 days. TB and dosing solutions were pre-warmed to 37° C. before transport assay. The cell monolayer was washed twice with HBSS containing 10 mM HEPES. For A-B (apical to basolateral) directional transport assay, 75 μL dosing solution is added to the apical well. Fill each basolateral well with 250 μL TB. For B-A (basolateral to apical) directional transport assay, 250 μL of dosing solution is added to the basolateral well after filling each apical well with 75 μL TB. Test compound(s) and digoxin are tested at 2 μM in the presence or absence of 1 μM zosuquidar bidirectionally in duplicate. Atenolol and propranolol are tested at 2 μM in the absence of zosuquidar in A to B direction in duplicate. The plates are incubated for 120 minutes at 37° C. with 5% C02 and saturated humidity. The time zero samples are generated by mixing 50 μL initial dosing solution of test compound or reference compound with 100 μL TB and 250 μL quench solution (acetonitrile (ACN) or other appropriate solvent with internal standard(s), based on the bioanalytical method development). At 120 minutes, 150 μL of solution is collected from each A-B receiver well followed by addition of 250 μL quench solution to get A-B receiver sample. And for other samples (A-B donor, B-A donor and receiver), 50 μL of solution is collected from each corresponding well followed by addition of 250 μL quench solution and 100 μL TB. All samples are vortex-mixed and centrifuged at 3220 g for 20 minutes. Subsequently, supernatant is diluted with ultra pure water for LC-MS/MS analysis. The concentrations of test compound in all samples are determined by LC-MS/MS and expressed as peak area ratio of analyte to internal standard. The concentration of samples is expressed using the peak area ratio of Analyte to Internal Standard (Analyte/IS). The apparent permeability coefficient (Papp) is calculated using the following equation: Papp=VR/(Area*Time)*(CR/C0) wherein VR is the solution volume in the receiver chamber (0.075 mL on the apical side, 0.25 mL on the basolateral side); Area is the surface area for the transport, i.e. 0.0804 cm2 for the area of the monolayer; Time is incubation time, expressed in seconds, 2 h=2×3600 s; C0 is the initial concentration in the donor chamber; CR is the final concentrations in receiver chamber. The efflux ratio is calculated using the following equation: Efflux ratio=[…]) where Papp (A-B) and Papp (B-A) are the Papp values of compound in Apical to Basolateral and Basolateral to Apical directional transport, respectively."}, "[3]": {"conditions": "HSA stimulation buffer, 5 μM Adenosine as agonist, 2.0% HSA, read-out: IC50 (nM) (5 μM Adenosine as agonist, 2.0% HSA)"}, "[4]": {"conditions": "normal stimulation buffer, 3 nM NECA as agonist, 0.1% BSA, read-out: IC50 (nM) (3 nM NECA as agonist, 0.1% BSA)"}}, "note": "Read-outs that look alike come from different tables or passages of the source."}
{"smiles": "Cn1c(=O)n(CCN2CCN(c3cc(OCC[S@+](C)[O-])c(F)cc3F)CC2)c2nc(N)n3nc(-c4ccco4)nc3c21", "note": "[Compound 7, (S)-5-amino-3-(2-(4-(2,4-difluoro-5-(2-(methylsulfinyl)ethoxy)phenyl)piperazin-1-yl)ethyl)-8-(furan-2-yl)-1-methyl-1H-[1,2,4]triazolo[5,1-i]purin-2-one]", "values": [{"measurement": "IC50", "setting": "[1]; [3]", "value": 64, "unit": "nM"}, {"measurement": "IC50", "setting": "[1]; [4]", "value": 0.3, "unit": "nM"}, {"measurement": "efflux ratio at 120 min, 2 μM", "setting": "[2]", "value": "> 500"}]}
{"smiles": "C[S@+]([O-])CCOc1cc(N2CCN(CCn3ncc4c3nc(N)n3nc(-c5ccco5)nc43)CC2)c(F)cc1F", "note": "[Compound 12, (S)-7-(2-(4-(2,4-difluoro-5-(2-(methylsulfinyl)ethoxy)phenyl)piperazin-1-yl)ethyl)-2-(furan-2-yl)-7H-pyrazolo[4,3-e][1,2,4]triazolo[1,5-c]pyrimidin-5-amine]", "values": [{"measurement": "IC50", "setting": "[1]; [3]", "value": 162, "unit": "nM"}, {"measurement": "IC50", "setting": "[1]; [4]", "value": 0.4, "unit": "nM"}, {"measurement": "efflux ratio at 120 min, 2 μM", "setting": "[2]", "value": "> 140"}]}
{"smiles": "Nc1nc(NCCN2CCN(c3cc(O[C@H]4CC[S@@+]([O-])CC4)c(F)cc3F)CC2)nc2nc(-c3ccco3)nn12", "note": "[Compound 14, (1s,4s)-4-(5-(4-(2-((7-amino-2-(furan-2-yl)-[1,2,4]triazolo[1,5-a][1,3,5]triazin-5-yl)amino)ethyl)piperazin-1-yl)-2,4-difluorophenoxy)tetrahydro-2H-thiopyran 1-oxide]", "values": [{"measurement": "IC50", "setting": "[1]; [3]", "value": 71, "unit": "nM"}, {"measurement": "IC50", "setting": "[1]; [4]", "value": 0.7, "unit": "nM"}, {"measurement": "efflux ratio at 120 min, 2 μM", "setting": "[2]", "value": "> 900"}]}
{"smiles": "Cn1c(=O)n(CCN2CCN(c3ccc(OCC[S+](C)[O-])cc3F)CC2)c2nc(N)n3nc(-c4ccco4)nc3c21", "note": "(stereo not drawn) [Compound 20, 5-amino-3-(2-(4-(2-fluoro-4-(2-(methylsulfinyl)ethoxy)phenyl)piperazin-1-yl)ethyl)-8-(furan-2-yl)-1-methyl-1H-[1,2,4]triazolo[5,1-i]purin-2(3H)-one]", "values": [{"measurement": "IC50", "setting": "[1]; [3]", "value": 72, "unit": "nM"}, {"measurement": "IC50", "setting": "[1]; [4]", "value": 0.4, "unit": "nM"}, {"measurement": "efflux ratio at 120 min, 2 μM", "setting": "[2]", "value": "> 300"}]}
{"smiles": "CNC(=O)c1cc(N2CCN(CCn3ncc4c3nc(N)n3nc(-c5ccco5)nc43)CC2)c(F)cc1F", "note": "[Compound 4, 5-(4-(2-(5-amino-2-(furan-2-yl)-7H-pyrazolo[4,3-e][1,2,4]triazolo[1,5-c]pyrimidin-7-yl)ethyl)piperazin-1-yl)-2,4-difluoro-N-methylbenzamide]", "values": [{"measurement": "IC50", "setting": "[1]; [3]", "value": 150, "unit": "nM"}, {"measurement": "IC50", "setting": "[1]; [4]", "value": 0.3, "unit": "nM"}, {"measurement": "efflux ratio at 120 min, 2 μM", "setting": "[2]", "value": 8}]}
{"smiles": "Cn1c(=O)n(CCN2CCN(c3cc(OCCS(C)(=O)=O)c(F)cc3F)CC2)c2nc(N)n3nc(-c4ccco4)nc3c21", "note": "[Compound 9, 5-amino-3-(2-(4-(2,4-difluoro-5-(2-(methylsulfonyl)ethoxy)phenyl)piperazin-1-yl)ethyl)-8-(furan-2-yl)-1-methyl-1H-[1,2,4]triazolo[5,1-i]purin-2(3H)-one]", "values": [{"measurement": "IC50", "setting": "[1]; [3]", "value": 104, "unit": "nM"}, {"measurement": "IC50", "setting": "[1]; [4]", "value": 0.5, "unit": "nM"}, {"measurement": "efflux ratio at 120 min, 2 μM", "setting": "[2]", "value": "> 300"}]}
{"smiles": "C[S@@+]([O-])CCOc1cc(N2CCN(CCNc3nc(N)n4nc(-c5ccco5)nc4n3)CC2)c(F)cc1F", "note": "[Compound 11, (R)—N5-(2-(4-(2,4-difluoro-5-(2-(methylsulfinyl)ethoxy)phenyl)piperazin-1-yl)ethyl)-2-(furan-2-yl)-[1,2,4]triazolo[1,5-a][1,3,5]triazine-5,7-diamine]", "values": [{"measurement": "IC50", "setting": "[1]; [3]", "value": 41, "unit": "nM"}, {"measurement": "IC50", "setting": "[1]; [4]", "value": 0.4, "unit": "nM"}, {"measurement": "efflux ratio at 120 min, 2 μM", "setting": "[2]", "value": "> 600"}]}
{"smiles": "Cn1c(=O)n(CCN2CCN(c3cc(OCC[S@@+](C)[O-])c(F)cc3F)CC2)c2nc(N)n3nc(-c4ccco4)nc3c21", "note": "[Compound 8, (R)-5-amino-3-(2-(4-(2,4-difluoro-5-(2-(methylsulfinyl)ethoxy)-phenyl)piperazin-1-yl)ethyl)-8-(furan-2-yl)-1-methyl-1H-[1,2,4]triazolo[5,1-i]purin-2-one]", "values": [{"measurement": "IC50", "setting": "[1]; [3]", "value": 70, "unit": "nM"}, {"measurement": "IC50", "setting": "[1]; [4]", "value": 0.3, "unit": "nM"}, {"measurement": "efflux ratio at 120 min, 2 μM", "setting": "[2]", "value": "> 400"}]}
